Measured values taken from patent US10676477B2, “Factor XIa macrocycle inhibitors bearing a non-aromatic P2' group” (BRISTOL-MYERS SQUIBB COMPANY, priority 2015, dated 2020).
Counter-ions that a name gives are not always drawn.

Experiments:
human plasma kallikrein = target: T1, human plasma kallikrein (Homo sapiens, UniProt P03952); assay: Plasma kallikrein enzyme inhibition assay (chromogenic substrate S-2302), Ki; format: biochemical; conditions: purified human plasma kallikrein, substrate S-2302, pH 7.5
T1 construct: purchased Enzyme Research Laboratories
T1 sequence (P03952 391-638 limits assumed): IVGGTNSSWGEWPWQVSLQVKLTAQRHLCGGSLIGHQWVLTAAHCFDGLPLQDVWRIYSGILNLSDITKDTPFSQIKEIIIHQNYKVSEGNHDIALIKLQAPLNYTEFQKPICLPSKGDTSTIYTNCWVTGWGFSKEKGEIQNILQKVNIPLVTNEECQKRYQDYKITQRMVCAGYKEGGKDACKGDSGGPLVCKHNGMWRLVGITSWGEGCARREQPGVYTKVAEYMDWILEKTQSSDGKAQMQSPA
T1 sequence (P03952 20-390 partner limits assumed): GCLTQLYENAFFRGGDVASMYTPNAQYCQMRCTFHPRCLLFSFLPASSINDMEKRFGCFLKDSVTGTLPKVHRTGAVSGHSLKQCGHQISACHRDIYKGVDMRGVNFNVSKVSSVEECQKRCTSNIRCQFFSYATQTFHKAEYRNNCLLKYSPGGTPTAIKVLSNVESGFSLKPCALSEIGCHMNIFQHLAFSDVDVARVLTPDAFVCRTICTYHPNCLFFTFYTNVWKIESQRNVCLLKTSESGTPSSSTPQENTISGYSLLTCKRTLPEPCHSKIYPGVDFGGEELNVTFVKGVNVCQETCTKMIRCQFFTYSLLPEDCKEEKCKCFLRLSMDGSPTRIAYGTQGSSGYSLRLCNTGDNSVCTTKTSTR
Procedure: (§1) The effectiveness of compounds of the present invention as inhibitors of the coagulation Factors XIa, VIIa, IXa, Xa, XIIa, plasma kallikrein chymotrypsin, trypsin, or thrombin, can be determined using a relevant purified serine protease, respectively, and an appropriate synthetic substrate. The rate of hydrolysis of the chromogenic or fluorogenic substrate by the relevant serine protease was measured both in the absence and presence of compounds of the present invention. […] A decrease in the rate of absorbance or fluorescence change in the presence of inhibitor is indicative of enzyme inhibition. Such methods are known to one skilled in the art. The results of this assay are expressed as the inhibitory constant, Ki.
Plasma kallikrein determinations were made in 0.1 M sodium phosphate buffer at a pH of 7.5 containing 0.1-0.2 M sodium chloride and 0.5% PEG 8000. Determinations were made using purified human plasma kallikrein (Enzyme Research Laboratories) at a final assay concentration of 200 pM and the synthetic substrate S-2302 (H-(D)-Pro-Phe-Arg-pNA; CHROMOGENIX®) at a concentration of 0.00008-0.0004 M.
(§2) The Michaelis constant, Km, for substrate hydrolysis by each protease, was determined at 25° C. or 37° C. in the absence of inhibitor. Values of Ki were determined by allowing the protease to react with the substrate in the presence of the inhibitor. Reactions were allowed to go for periods of 20-180 minutes (depending on the protease) and the velocities (rate of absorbance or fluorescence change versus time) were measured. The following relationships were used to calculate Ki values: (Vmax*S)/(Km+S) (vo−vs)/vs=I/(Ki*(1+S/Km)) for a competitive inhibitor with one binding site; or vs/vo=A+((B−A)/(1+(IC50/(I)^n)); and Ki=IC50/(1+S/Km) for a competitive inhibitor where: […]

human Factor XIa = target: T2, human Factor XIa (Homo sapiens, UniProt P03951); assay: Factor XIa enzyme inhibition assay (chromogenic substrate S-2366), Ki; format: biochemical; conditions: purified human Factor XIa, substrate S-2366, pH 7.4
T2 construct: purchased Haematologic Technologies
T2 sequence (P03951 388-625 limits assumed): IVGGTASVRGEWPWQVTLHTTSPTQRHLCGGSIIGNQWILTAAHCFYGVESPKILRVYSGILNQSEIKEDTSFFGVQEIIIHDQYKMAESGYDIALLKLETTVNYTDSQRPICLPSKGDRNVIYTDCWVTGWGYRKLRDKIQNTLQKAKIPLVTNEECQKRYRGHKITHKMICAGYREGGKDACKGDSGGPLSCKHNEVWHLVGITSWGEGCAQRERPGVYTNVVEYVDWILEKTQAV
T2 sequence (P03951 19-387 partner limits assumed): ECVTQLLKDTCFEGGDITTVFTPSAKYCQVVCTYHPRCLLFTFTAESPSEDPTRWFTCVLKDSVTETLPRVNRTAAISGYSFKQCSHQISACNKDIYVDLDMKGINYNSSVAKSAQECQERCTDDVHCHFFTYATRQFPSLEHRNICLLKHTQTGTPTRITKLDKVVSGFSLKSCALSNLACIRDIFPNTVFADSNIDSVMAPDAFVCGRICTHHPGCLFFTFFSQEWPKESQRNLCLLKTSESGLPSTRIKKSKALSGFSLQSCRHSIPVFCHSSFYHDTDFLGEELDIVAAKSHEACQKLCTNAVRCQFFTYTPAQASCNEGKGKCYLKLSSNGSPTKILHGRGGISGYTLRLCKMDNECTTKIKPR
Procedure: as §1
Factor XIa determinations were made in 50 mM HEPES buffer at pH 7.4 containing 145 mM NaCl, 5 mM KCl, and 0.1% PEG 8000 (polyethylene glycol; JT Baker or Fisher Scientific). Determinations were made using purified human Factor XIa at a final concentration of 25-200 pM (Haematologic Technologies) and the synthetic substrate S-2366 (pyroGlu-Pro-Arg-pNA; CHROMOGENIX® or AnaSpec) at a concentration of 0.0002-0.001 M.
as §2

| Compound | Ki (human plasma kallikrein) | Ki (human Factor XIa) |
| --- | --- | --- |
| CC(C)(C)OC(=O)N1CCN2c3cccc(c3)[C@@H](n3cnc(-c4cc(Cl)ccc4-n4cc(Cl)nn4)cc3=O)CCCCCNC(=O)[C@@H]2C1 [Example 1, tert-butyl (7S,15S)-15-{4-[5-chloro-2-(4-chloro-1H-1,2,3-triazol-1-yl)phenyl]-6-oxo-1,6-dihydropyrimidin-1-yl}-8-oxo-2,5,9-triazatricyclo[14.3.1.0^2,7]icosa-1(20),16,18-triene-5-carboxylate] | 3470 nM | 955 nM |
| O=C1NCCCCC[C@H](n2cnc(-c3cc(Cl)ccc3-n3cc(Cl)nn3)cc2=O)c2cccc(c2)N2CCNC[C@@H]12 [Example 2, (7S,15S)-15-{4-[5-chloro-2-(4-chloro-1H-1,2,3-triazol-1-yl)phenyl]-6-oxo-1,6-dihydropyrimidin-1-yl}-2,5,9-triazatricyclo[14.3.1.0^2,7]icosa-1(20),16,18-trien-8-one hydrochloride] | 7290 nM | 542 nM |
| COC(=O)N1CCN2c3cccc(c3)[C@@H](n3cnc(-c4cc(Cl)ccc4-n4cc(Cl)nn4)cc3=O)CCCCCNC(=O)[C@@H]2C1 [Example 3, methyl (7S,15S)-15-{4-[5-chloro-2-(4-chloro-1H-1,2,3-triazol-1-yl)phenyl]-6-oxo-1,6-dihydropyrimidin-1-yl}-8-oxo-2,5,9-triazatricyclo[14.3.1.0^2,7]icosa-1(20),16,18-triene-5-carboxylate] | 4110 nM | 643 nM |
| CC(C)(C)OC(=O)N1CC(=O)N2c3cccc(c3)[C@@H](n3cnc(-c4cc(Cl)ccc4-n4cc(Cl)nn4)cc3=O)CCCCCNC(=O)[C@@H]2C1 [Example 4, tert-butyl (7S,15S)-15-{4-[5-chloro-2-(4-chloro-1H-1,2,3-triazol-1-yl)phenyl]-6-oxo-1,6-dihydropyrimidin-1-yl}-3,8-dioxo-2,5,9-triazatricyclo[14.3.1.0^2,7]icosa-1(20),16,18-triene-5-carboxylate] | 3140 nM | 9020 nM |
| CC(C)(C)OC(=O)N1CC(=O)N2c3cccc(c3)[C@@H](n3cnc(-c4cc(Cl)ccc4-n4cc(Cl)nn4)cc3=O)CCCCCNC(=O)[C@H]2C1 [Example 5, tert-butyl (7R,15S)-15-{4-[5-chloro-2-(4-chloro-1H-1,2,3-triazol-1-yl)phenyl]-6-oxo-1,6-dihydropyrimidin-1-yl}-3,8-dioxo-2,5,9-triazatricyclo[14.3.1.0^2,7]icosa-1(20),16,18-triene-5-carboxylate] | 6000 nM | 276 nM |
| O=C1NCCCCC[C@H](n2cnc(-c3cc(Cl)ccc3-n3cc(Cl)nn3)cc2=O)c2cccc(c2)N2C(=O)CNC[C@@H]12 [Example 6, (7S,15S)-15-{4-[5-chloro-2-(4-chloro-1H-1,2,3-triazol-1-yl)phenyl]-6-oxo-1,6-dihydropyrimidin-1-yl}-2,5,9-triazatricyclo[14.3.1.0^2,7]icosa-1(20),16,18-triene-3,8-dione hydrochloride] | 13000 nM | 6000 nM |
| O=C1NCCCCC[C@H](n2cnc(-c3cc(Cl)ccc3-n3cc(Cl)nn3)cc2=O)c2cccc(c2)N2C(=O)CNC[C@H]12 [Example 7, (7R,15S)-15-{4-[5-chloro-2-(4-chloro-1H-1,2,3-triazol-1-yl)phenyl]-6-oxo-1,6-dihydropyrimidin-1-yl}-2,5,9-triazatricyclo[14.3.1.0^2,7]icosa-1(20),16,18-triene-3,8-dione hydrochloride] | 4780 nM | 97 nM |
| CC(C)(C)OC(=O)N1CCN2c3cccc(c3)[C@@H](n3cnc(-c4cc(Cl)ccc4-n4cc(Cl)nn4)cc3=O)CCCCCNC(=O)[C@H]2C1 [Example 8, tert-butyl (7R,15S)-15-{4-[5-chloro-2-(4-chloro-1H-1,2,3-triazol-1-yl)phenyl]-6-oxo-1,6-dihydropyrimidin-1-yl}-8-oxo-2,5,9-triazatricyclo[14.3.1.0^2,7]icosa-1(20),16,18-triene-5-carboxylate] | 1090 nM | 21 nM |
| O=C1NCCCCC[C@H](n2cnc(-c3cc(Cl)ccc3-n3cc(Cl)nn3)cc2=O)c2cccc(c2)N2CCNC[C@H]12 [Example 9, (7R,15S)-15-{4-[5-chloro-2-(4-chloro-1H-1,2,3-triazol-1-yl)phenyl]-6-oxo-1,6-dihydropyrimidin-1-yl}-2,5,9-triazatricyclo[14.3.1.0^2,7]icosa-1(20),16,18-trien-8-one hydrochloride] | 1820 nM | 11 nM |
| COC(=O)N1CCN2c3cccc(c3)[C@@H](n3cnc(-c4cc(Cl)ccc4-n4cc(Cl)nn4)cc3=O)CCCCCNC(=O)[C@H]2C1 [Example 10, methyl (7R,15S)-15-{4-[5-chloro-2-(4-chloro-1H-1,2,3-triazol-1-yl)phenyl]-6-oxo-1,6-dihydropyrimidin-1-yl}-8-oxo-2,5,9-triazatricyclo[14.3.1.0^2,7]icosa-1(20),16,18-triene-5-carboxylate] | 862 nM | 5 nM |
| CC(C)(C)OC(=O)CN1CCN2c3cccc(c3)[C@@H](n3cnc(-c4cc(Cl)ccc4-n4cc(Cl)nn4)cc3=O)CCCCCNC(=O)[C@H]2C1 [Example 11, tert-butyl 2-[(7R,15S)-15-{4-[5-chloro-2-(4-chloro-1H-1,2,3-triazol-1-yl)phenyl]-6-oxo-1,6-dihydropyrimidin-1-yl}-8-oxo-2,5,9-triazatricyclo[14.3.1.0^2,7]icosa-1(20),16,18-trien-5-yl]acetate trifluoromethylacetate] | 460 nM | 11 nM |
| CC(=O)N1CCN2c3cccc(c3)[C@@H](n3cnc(-c4cc(Cl)ccc4-n4cc(Cl)nn4)cc3=O)CCCCCNC(=O)[C@H]2C1 [Example 12, (7R,15S)-5-acetyl-15-{4-[5-chloro-2-(4-chloro-1H-1,2,3-triazol-1-yl)phenyl]-6-oxo-1,6-dihydropyrimidin-1-yl}-2,5,9-triazatricyclo[14.3.1.0^2,7]icosa-1(20),16,18-trien-8-one] | 1050 nM | 6 nM |
| CN1CCN2c3cccc(c3)[C@@H](n3cnc(-c4cc(Cl)ccc4-n4cc(Cl)nn4)cc3=O)CCCCCNC(=O)[C@H]2C1 [Example 13, (7R,15S)-15-{4-[5-chloro-2-(4-chloro-1H-1,2,3-triazol-1-yl)phenyl]-6-oxo-1,6-dihydropyrimidin-1-yl}-5-methyl-2,5,9-triazatricyclo[14.3.1.0^2,7]icosa-1(20),16,18-trien-8-one, trifluoromethyl acetate] | 441 nM | 10 nM |
| O=C(O)CN1CCN2c3cccc(c3)[C@@H](n3cnc(-c4cc(Cl)ccc4-n4cc(Cl)nn4)cc3=O)CCCCCNC(=O)[C@H]2C1 [Example 14, 2-[(7R,15S)-15-{4-[5-chloro-2-(4-chloro-1H-1,2,3-triazol-1-yl)phenyl]-6-oxo-1,6-dihydropyrimidin-1-yl}-8-oxo-2,5,9-triazatricyclo[14.3.1.0^2,7]icosa-1(20),16,18-trien-5-yl]acetic acid trifluoromethyl acetate] | 107 nM | 5 nM |
| CC(C)(C)OC(=O)N1CCN2c3cccc(c3)[C@@H](n3cnc(-c4cc(Cl)ccc4-n4cc(Cl)nn4)cc3=O)CCCCNC(=O)[C@H]2C1 [Example 15, tert-butyl (7R,14S)-14-{4-[5-chloro-2-(4-chloro-1H-1,2,3-triazol-1-yl)phenyl]-6-oxo-1,6-dihydropyrimidin-1-yl}-8-oxo-2,5,9-triazatricyclo[13.3.1.0^2,7]nonadeca-1(19),15,17-triene-5-carboxylate, trifluoromethylacetate] | 3430 nM | 492 nM |
